Laboratory results from patent US12479830B2, “Homopiperazinyl and homopiperidinyl quinazolin-4(3H)-one derivatives having multimodal activity against pain” (ESTEVE PHARMACEUTICALS, S.A., priority 2019, dated 2025).

Tests used:
[1] = target: Human α2δ-1 subunit of Cav2.2 calcium channel (Homo sapiens, UniProt P54289); assay: Human α2δ-1 subunit of Cav2.2 calcium channel assay ([3H]-gabapentin binding); conditions: binding to the α2δ-1 subunit of voltage-gated calcium channels, expressed as Ki class; + also covers inhibition between 1% and 50%
Protocol: Human α2δ-1 Subunit of Cav2.2 Calcium Channel Assay
Human α2δ-1 enriched membranes (2.5 μg) were incubated with 15 nM of radiolabeled [^3H]-Gabapentin in assay buffer containing Hepes-KOH 10 mM. pH 7.4. NSB (non specific binding) was measured by adding 10 μM pregabalin. The binding of the test compound was measured at either one concentration (% inhibition at 1 or 10 μM) or five different concentrations to determine affinity values (Ki). After 60 min incubation at 27° C., binding reaction was terminated by filtering through Multiscreen GF/C (Millipore) presoaked in 0.5% polyethyleneimine in Vacuum Manifold Station, followed by 3 washes with ice-cold filtration buffer containing 50 mM Tris-HCl, pH 7.4. Filter plates were dried at 60° C. for 1 h and 30 μL of scintillation cocktail were added to each well before radioactivity reading. Readings were performed in a Trilux 1450 Microbeta radioactive counter (Perkin Elmer).

Human σ1 receptor = target: T1, Human σ1 receptor (Homo sapiens, UniProt Q99720); assay: Human σ1 receptor radioligand assay ([3H](+)-pentazocine binding); conditions: binding to the σ1 receptor, expressed as Ki class; + also covers inhibition between 1% and 50%
T1 construct: expressed in transfected cells; host or cells: HEK-293
Protocol: Human σ1 Receptor Radioligand Assay
Transfected HEK-293 membranes (7 μg) were incubated with 5 nM of [^3H](+)-pentazocine in assay buffer containing Tris-HCl 50 mM at pH 8. NBS (non-specific binding) was measured by adding 10 μM haloperidol. The binding of the test compound was measured at either one concentration (% inhibition at 1 or 10 μM) or five different concentrations to determine affinity values (Ki). Plates were incubated at 37° C. for 120 minutes. After the incubation period, the reaction mix was then transferred to MultiScreen HTS, FC plates (Millipore), filtered and plates were washed 3 times with ice-cold 10 mM Tris-HCL (pH7.4). Filters were dried and counted at approximately 40% efficiency in a MicroBeta scintillation counter (Perkin-Elmer) using EcoScint liquid scintillation cocktail.

T1 sequence (Q99720 whole entry): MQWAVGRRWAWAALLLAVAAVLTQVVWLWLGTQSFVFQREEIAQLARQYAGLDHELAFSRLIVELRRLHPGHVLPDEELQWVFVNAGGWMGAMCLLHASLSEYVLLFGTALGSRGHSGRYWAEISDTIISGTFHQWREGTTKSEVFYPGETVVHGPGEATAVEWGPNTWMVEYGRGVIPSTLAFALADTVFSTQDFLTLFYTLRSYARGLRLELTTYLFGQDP
Sequence of Human α2δ-1 subunit of Cav2.2 calcium channel (P54289 25-1103): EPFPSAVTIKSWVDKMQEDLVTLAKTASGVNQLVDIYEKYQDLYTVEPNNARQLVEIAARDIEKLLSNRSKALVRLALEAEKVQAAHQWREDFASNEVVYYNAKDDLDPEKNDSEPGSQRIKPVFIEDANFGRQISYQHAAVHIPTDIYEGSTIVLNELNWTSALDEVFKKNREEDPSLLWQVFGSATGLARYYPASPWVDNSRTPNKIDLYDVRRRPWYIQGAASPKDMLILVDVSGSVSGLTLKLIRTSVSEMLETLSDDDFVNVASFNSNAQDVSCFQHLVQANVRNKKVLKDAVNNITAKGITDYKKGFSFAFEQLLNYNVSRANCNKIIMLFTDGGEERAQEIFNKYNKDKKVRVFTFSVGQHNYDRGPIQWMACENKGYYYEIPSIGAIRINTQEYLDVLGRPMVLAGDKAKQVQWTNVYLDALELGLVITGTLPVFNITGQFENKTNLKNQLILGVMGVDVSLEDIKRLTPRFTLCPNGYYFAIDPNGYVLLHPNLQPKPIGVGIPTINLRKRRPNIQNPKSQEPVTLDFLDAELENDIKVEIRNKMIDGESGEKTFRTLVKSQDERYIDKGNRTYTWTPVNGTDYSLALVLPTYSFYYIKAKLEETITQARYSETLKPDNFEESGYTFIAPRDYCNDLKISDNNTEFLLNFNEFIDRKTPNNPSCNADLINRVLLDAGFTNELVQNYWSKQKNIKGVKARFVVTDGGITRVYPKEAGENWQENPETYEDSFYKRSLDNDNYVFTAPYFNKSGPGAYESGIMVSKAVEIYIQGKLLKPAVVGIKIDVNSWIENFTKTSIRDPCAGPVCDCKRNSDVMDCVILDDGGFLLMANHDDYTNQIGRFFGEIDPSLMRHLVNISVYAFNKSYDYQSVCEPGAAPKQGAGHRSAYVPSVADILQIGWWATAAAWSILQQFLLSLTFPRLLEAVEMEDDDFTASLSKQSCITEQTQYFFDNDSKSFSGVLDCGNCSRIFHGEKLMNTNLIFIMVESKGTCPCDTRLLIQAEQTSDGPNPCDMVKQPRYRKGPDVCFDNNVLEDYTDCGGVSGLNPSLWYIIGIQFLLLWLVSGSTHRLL

CCCC(c1nc2cc(F)c(Cl)cc2c(=O)n1CC)N1CCCN(C)CC1 (centres unmarked) [Example 89, 6-chloro-3-ethyl-7-fluoro-2-(1-(4-methyl-1,4-diazepan-1-yl)butyl)quinazolin-4(3H)-one] was tested, and the Ki [1] was < 500 nM and the Ki (Human σ1 receptor) was < 500 nM.
For CCCC(c1nc2ccc(Br)cc2c(=O)n1CC)N1CCN(C)CC(C)(C)C1 (centres unmarked) [Example 30, 6-bromo-3-ethyl-2-(1-(4,6,6-trimethyl-1,4-diazepan-1-yl)butyl)quinazolin-4(3H)-one], the Ki [1] was > 5000 nM and the Ki (Human σ1 receptor) was > 1000 nM.
CCCC(c1nc2c(C)cc(Br)cc2c(=O)n1CC)N1CCCN(C)CC1 (centres unmarked) [Example 25, 6-bromo-3-ethyl-8-methyl-2-(1-(4-methyl-1,4-diazepan-1-yl)butyl)quinazolin-4(3H)-one] was tested, and the Ki [1] was > 5000 nM and the Ki (Human σ1 receptor) was 500 to 1000 nM.
In the case of CC[C@H]1CCn2c(nc3ccc(Br)cc3c2=O)[C@@H]1N1CCCN(C)CC1 [Example 270, (6R,7S)-2-bromo-7-ethyl-6-(4-methyl-1,4-diazepan-1-yl)-8,9-dihydro-6H-pyrido[2,1-b]quinazolin-11(7H)-one], the Ki [1] is reported as > 5000 nM and the Ki (Human σ1 receptor) is reported as 500 to 1000 nM.
CCCC(c1nc2cccc(Br)c2c(=O)n1CC)N1CCCN(C)CC1 (centres unmarked) [Example 53, 5-bromo-3-ethyl-2-(1-(4-methyl-1,4-diazepan-1-yl)butyl)quinazolin-4(3H)-one] was tested, and the Ki [1] was 500 to 5000 nM and the Ki (Human σ1 receptor) was < 500 nM.
For CCCC(c1nc2ccncc2c(=O)n1CC)N1CCCNCC1 (centres unmarked) [Example 172, 2-(1-(1,4-diazepan-1-yl)butyl)-3-ethylpyrido[4,3-d]pyrimidin-4(3H)-one], the Ki [1] was < 500 nM and the Ki (Human σ1 receptor) was > 1000 nM.
With CCC[C@H](c1nc2ccc(Br)cc2c(=O)n1CCC)N1CCNC[C@@H](C)C1 [Example 68, 6-bromo-2-((R)-1-((R)-6-methyl-1,4-diazepan-1-yl)butyl)-3-propylquinazolin-4(3H)-one] the Ki [1] was < 500 nM and the Ki (Human σ1 receptor) was > 1000 nM.
CCC[C@H](c1nc2ccc(Cl)cc2c(=O)n1CC)N1CCN(C)C[C@@H](C)C1 [Example 76, 6-chloro-2-((R)-1-((R)-4,6-dimethyl-1,4-diazepan-1-yl)butyl)-3-ethylquinazolin-4(3H)-one] was tested, and the Ki [1] was < 500 nM and the Ki (Human σ1 receptor) was 500 to 1000 nM.
With CCC[C@H](c1nc2cc(Cl)c(Cl)cc2c(=O)n1CC)N1CCNC[C@H](C)C1 [Example 109, 6,7-Dichloro-3-ethyl-2-((R)-1-((S)-6-methyl-1,4-diazepan-1-yl)butyl)quinazolin-4(3H)-one] the Ki [1] was < 500 nM and the Ki (Human σ1 receptor) was > 1000 nM.
For CCC[C@H](c1nc2cc(Cl)c(Cl)cc2c(=O)n1CC)N1CCNC[C@@H](C)C1 [Example 110, 6,7-dichloro-3-ethyl-2-((R)-1-((R)-6-methyl-1,4-diazepan-1-yl)butyl)quinazolin-4(3H)-one], the Ki [1] was < 500 nM and the Ki (Human σ1 receptor) was > 1000 nM.
CCC[C@H](c1nc2ccc(F)cc2c(=O)n1CC)N1CCN[C@@H](C)CC1 [Example 236, 3-ethyl-6-fluoro-2-((R)-1-((S)-5-methyl-1,4-diazepan-1-yl)butyl)quinazolin-4(3H)-one] was tested, and the Ki [1] was < 500 nM and the Ki (Human σ1 receptor) was < 500 nM.
CCC[C@H](c1nc2ccc(F)cc2c(=O)n1CC(C)C)N1CCCN(C)CC1 [Example 214, (R)-6-fluoro-3-isobutyl-2-(1-(4-methyl-1,4-diazepan-1-yl)butyl)quinazolin-4(3H)-one] was tested, and the Ki [1] was < 500 nM and the Ki (Human σ1 receptor) was < 500 nM.
CCC[C@H](c1nc2cc(F)c(Br)cc2c(=O)n1CC)N1CCNC[C@@H](C)C1 [Example 97, 6-bromo-3-ethyl-7-fluoro-2-((R)-1-((R)-6-methyl-1,4-diazepan-1-yl)butyl)quinazolin-4(3H)-one] was tested, and the Ki [1] was < 500 nM and the Ki (Human σ1 receptor) was 500 to 1000 nM.
For CCCC(c1nc2cc(Br)ccc2c(=O)n1CC)N1CCCN(C)CC1 (centres unmarked) [Example 3, 7-bromo-3-ethyl-2-(1-(4-methyl-1,4-diazepan-1-yl)butyl)quinazolin-4(3H)-one], the Ki [1] was < 500 nM and the Ki (Human σ1 receptor) was > 1000 nM.
With CCC[C@H](c1nc2ccc(OC(F)(F)F)cc2c(=O)n1CC)N1CCCN(C)CC1 [Example 249, (R)-3-ethyl-2-(1-(4-methyl-1,4-diazepan-1-yl)butyl)-6-(trifluoromethoxy)quinazolin-4(3H)-one] the Ki [1] was < 500 nM and the Ki (Human σ1 receptor) was 500 to 1000 nM.
In the case of CCCC(c1nc2ccc(Br)c(F)c2c(=O)n1CC)N1CCCN(C)CC1 (centres unmarked) [Example 51, 6-bromo-3-ethyl-5-fluoro-2-(1-(4-methyl-1,4-diazepan-1-yl)butyl)quinazolin-4(3H)-one], the Ki (Human σ1 receptor) is reported as < 500 nM.
CCCC(c1nc2cnc(C(F)(F)F)cc2c(=O)n1CC)N1CCCN(C)CC1 (centres unmarked) [Example 192, 3-ethyl-2-(1-(4-methyl-1,4-diazepan-1-yl)butyl)-6-(trifluoromethyl)pyrido[3,4-d]pyrimidin-4(3H)-one] was tested, and the Ki [1] was < 500 nM and the Ki (Human σ1 receptor) was > 1000 nM.
CCCC(c1nc2cc(C)ccc2c(=O)n1CC)N1CCCN(C)CC1 (centres unmarked) [Example 11, 3-ethyl-7-methyl-2-(1-(4-methyl-1,4-diazepan-1-yl)butyl)quinazolin-4(3H)-one] was tested, and the Ki [1] was < 500 nM and the Ki (Human σ1 receptor) was > 1000 nM.
CCC[C@H](c1nc2cc(F)c(Cl)cc2c(=O)n1CC)N1CCNC[C@H](C)C1 [Example 118, 6-Chloro-3-ethyl-7-fluoro-2-((R)-1-((S)-6-methyl-1,4-diazepan-1-yl)butyl)quinazolin-4(3H)-one] was tested, and the Ki [1] was < 500 nM and the Ki (Human σ1 receptor) was 500 to 1000 nM.
In the case of CCC[C@H](c1nc2ccncc2c(=O)n1CC)N1CCN(C)C[C@@H](C)C1 [Example 168, 2-((R)-1-((R)-4,6-dimethyl-1,4-diazepan-1-yl)butyl)-3-ethylpyrido[4,3-d]pyrimidin-4(3H)-one], the Ki [1] is reported as < 500 nM and the Ki (Human σ1 receptor) is reported as > 1000 nM.
For CCC[C@@H](c1nc2ccc(Br)cc2c(=O)n1CC)N1CCNC[C@@H](O)C1 [Example 113, 6-Bromo-3-ethyl-2-((S)-1-((R)-6-hydroxy-1,4-diazepan-1-yl)butyl)quinazolin-4(3H)-one], the Ki [1] was > 5000 nM and the Ki (Human σ1 receptor) was > 1000 nM.
In the case of CCC[C@@H](c1nc2ccc(Br)cc2c(=O)n1CC)N1CCN(C)C[C@@H](CO)C1 [Example 124, 6-bromo-3-ethyl-2-((S)-1-((R)-6-(hydroxymethyl)-4-methyl-1,4-diazepan-1-yl)butyl)quinazolin-4(3H)-one], the Ki [1] is reported as 500 to 5000 nM and the Ki (Human σ1 receptor) is reported as > 1000 nM.
CCC[C@H](c1nc2cc(F)c(OC)cc2c(=O)n1CC)N1CCNC[C@H](C)C1 [Example 244, 3-ethyl-7-fluoro-6-methoxy-2-((R)-1-((S)-6-methyl-1,4-diazepan-1-yl)butyl)quinazolin-4(3H)-one] was tested, and the Ki [1] was 500 to 5000 nM and the Ki (Human σ1 receptor) was > 1000 nM.
CCC[C@@H](c1nc2ccc(F)cc2c(=O)n1CC)N1CCCN[C@H](C)C1 [Example 146] was tested, and the Ki [1] was > 5000 nM and the Ki (Human σ1 receptor) was > 1000 nM.
For CCC[C@H](c1nc2ccc(F)cc2c(=O)n1CCC(C)C)N1CCCN(C)CC1 [Example 226, (R)-6-fluoro-3-isopentyl-2-(1-(4-methyl-1,4-diazepan-1-yl)butyl)quinazolin-4(3H)-one], the Ki [1] was > 5000 nM and the Ki (Human σ1 receptor) was < 500 nM.
For CCCCn1c([C@@H](CCC)N2CCCN(CC)CC2)nc2ccc(F)cc2c1=O [Example 225, (R)-3-butyl-2-(1-(4-ethyl-1,4-diazepan-1-yl)butyl)-6-fluoroquinazolin-4(3H)-one], the Ki [1] was < 500 nM and the Ki (Human σ1 receptor) was < 500 nM.
For CCC[C@@H](c1nc2ccc(Cl)cc2c(=O)n1C)N1CCCN[C@@H](C)C1 [Example 149, 6-chloro-3-methyl-2-((S)-1-((S)-3-methyl-1,4-diazepan-1-yl)butyl)quinazolin-4(3H)-one], the Ki [1] was > 5000 nM and the Ki (Human σ1 receptor) was < 500 nM.
